Laboratory results reported in patent publication US9480259B2, “Pyrazolopyrans having herbicidal and pharmaceutical properties” (BASF SE, priority 2012, dated 2016).

Molecular target: Arabidopsis thaliana SHMT
Assay: SHMT activity assay (ED50 SHMT), coupled with N5,N10-CH2-THF dehydrogenase, NADH at 340 nm
Format: biochemical
Settings: Arabidopsis thaliana SHMT enzyme assay; values given as upper bounds
Outline: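 His-tagged SHMT purified on Ni-NTA. NADH formation followed at 340 nm for 30 min; ED50 from inhibition of initial velocity.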

Cc1n[nH]c2c1C(c1cc(C#N)cc(N(C)C(=O)c3ccc(C(=O)O)cc3)c1)(C(C)C)C(C#N)=C(N)O2 (stereo not shown) [Compound 2.669] and COCCOCC(=O)N(C)c1cc(C#N)cc(C2(C(C)C)C(C#N)=C(N)Oc3[nH]nc(C)c32)c1 (stereo not shown) [Compound 2.666] cannot be ordered by EC50: less than 100 nM for the first, less than 10 nM for the second.

Cc1n[nH]c2c1C(c1cc(C#N)cc(CCC#N)c1)(C(C)C)C(C#N)=C(N)O2 (stereo not shown) [Compound 2.671] and COC(=O)CCS(=O)(=O)N(C)c1cc(C#N)cc(C2(C(C)C)C(C#N)=C(N)Oc3[nH]nc(C)c32)c1 (stereo not shown) [Compound 2.726] cannot be ordered by EC50: less than 10 nM for the first, less than 100 nM for the second.

Cc1n[nH]c2c1C(c1ccc(CCC#N)c(-c3nnn[nH]3)c1)(C(C)C)C(C#N)=C(N)O2 (stereo not shown) [Compound 2.736] and Cc1n[nH]c2c1C(c1ccc(CCc3nnn[nH]3)c(C#N)c1)(C(C)C)C(C#N)=C(N)O2 (stereo not shown) [Compound 2.734] cannot be ordered by EC50: less than 1000 nM for the first, less than 100 nM for the second.

CCOC(=O)CS(=O)(=O)N(C)c1cc(C#N)cc(C2(C3CCC3)C(C#N)=C(N)Oc3[nH]nc(C)c32)c1 (stereo not shown) [Compound 2.719] and Cc1n[nH]c2c1C(c1ccc(CC#N)c(C#N)c1)(C1CCC1)C(C#N)=C(N)O2 (stereo not shown) [Compound 2.672] cannot be ordered by EC50: less than 100 nM for the first, less than 10 nM for the second.

Same assay, conditions: Table 2, Arabidopsis thaliana SHMT enzyme assay; values given as upper bounds

COc1c(Cl)cc(C2(C(C)C)C(C#N)=C(N)Oc3[nH]ncc32)cc1Cl (stereo not shown) [Compound 2.330] and COc1c(Cl)cc(C2(C(C)C)C(C#N)=C(N)Oc3[nH]nc(C)c32)cc1Cl (stereo not shown) [Compound 2.331] cannot be ordered by EC50: less than 10 nM for the first, less than 10 nM for the second.

Cc1n[nH]c2c1C(c1cc(C#N)cc(-c3ccccc3)c1)(C1CCC1)C(C#N)=C(N)O2 (stereo not shown) [Compound 2.323] and Cc1n[nH]c2c1C(c1cc(C#N)cc(-c3cccc(C(F)(F)F)c3)c1)(C1CCC1)C(C#N)=C(N)O2 (stereo not shown) [Compound 2.325] cannot be ordered by EC50: less than 100 nM for the first, less than 10 nM for the second.

COc1n[nH]c2c1C(c1cc(C#N)cc(C(F)(F)F)c1)(C1CCC1)C(C#N)=C(N)O2 (stereo not shown) [Compound 2.390] and CCOc1n[nH]c2c1C(c1cc(Br)cc(C#N)c1)(C1CCC1)C(C#N)=C(N)O2 (stereo not shown) [Compound 2.389] cannot be ordered by EC50: less than 10 nM for the first, less than 10 nM for the second.

Cc1n[nH]c2c1C(c1cc(Cl)cc(-c3ccccn3)c1)(C1CCC1)C(C#N)=C(N)O2 (stereo not shown) [Compound 2.318] and Cc1n[nH]c2c1C(c1cc(F)cc(C#N)c1)(C1CCC1)C(C#N)=C(N)O2 (stereo not shown) [Compound 2.258] cannot be ordered by EC50: less than 10 nM for the first, less than 10 nM for the second.

Cc1n[nH]c2c1C(c1cc(C#N)cc(C(F)(F)F)c1)(C1CC=CC1)C(C#N)=C(N)O2 (stereo not shown) [Compound 2.367] and Cc1n[nH]c2c1C(c1cc(Cl)cc(Cl)c1)(C1CC=CC1)C(C#N)=C(N)O2 (stereo not shown) [Compound 2.291] cannot be ordered by EC50: less than 10 nM for the first, less than 10 nM for the second.

Cc1n[nH]c2c1C(c1cccc([S+](C)[O-])c1)(C1CCC1)C(C#N)=C(N)O2 (stereo not shown) [Compound 2.312] and Cc1n[nH]c2c1C(c1ccc(F)c(OC(F)(F)F)c1)(C1CCC1)C(C#N)=C(N)O2 (stereo not shown) [Compound 2.265] cannot be ordered by EC50: less than 1000 nM for the first, less than 10 nM for the second.

Cc1n[nH]c2c1C(c1cc(Cl)cc(C#N)c1)(C(C)C)C(C#N)=C(N)O2 (stereo not shown) [Compound 2.345] and Cc1n[nH]c2c1C(c1cc(C#N)cc(C#N)c1)(C1CC1)C(C#N)=C(N)O2 (stereo not shown) [Compound 2.366] cannot be ordered by EC50: less than 10 nM for the first, less than 10 nM for the second.

N#CC1=C(N)Oc2[nH]ncc2C1(c1cc(Cl)cc(Cl)c1)C1CCCC1 (stereo not shown) [Compound 2.256] and CSc1cccc(C2(C3CCC3)C(C#N)=C(N)Oc3[nH]ncc32)c1 (stereo not shown) [Compound 2.311] cannot be ordered by EC50: less than 10000 nM for the first, less than 1000 nM for the second.

Same assay, conditions: Table 2; values given as upper bounds

Cc1n[nH]c2c1C(c1ccc(C(=O)O)c(Cl)c1)(C1CCC1)C(C#N)=C(N)O2 (stereo not shown) [Compound 2.594] and Cc1n[nH]c2c1C(c1ccc(CCC(=O)O)c(Cl)c1)(C1CCC1)C(C#N)=C(N)O2 (stereo not shown) [Compound 2.542] cannot be ordered by EC50: less than 1000 nM for the first, less than 100 nM for the second.

CCCc1n[nH]c2c1C(c1ccc(Cl)cc1)(C1CC1)C(C#N)=C(N)O2 (stereo not shown) [Compound 2.115.] and Cc1n[nH]c2c1C(c1cc(Cl)cc(Cl)c1)(C1CC1)C(C#N)=C(N)O2 (stereo not shown) [Compound 2.61.] cannot be ordered by EC50: less than 100 nM for the first, less than 1000 nM for the second.

CCCC1(c2cc(Br)cc(C#N)c2)C(C#N)=C(N)Oc2[nH]nc(C(C)C)c21 (stereo not shown) [Compound 2.585] and CCCC1(c2cc(C#N)cc(C#N)c2)C(C#N)=C(N)Oc2[nH]nc(C(C)C)c21 (stereo not shown) [Compound 2.586] cannot be ordered by EC50: less than 100 nM for the first, less than 1000 nM for the second.

Cc1n[nH]c2c1C(c1cc(C#N)cc(-c3cc(OC(F)(F)F)cc(C(=O)O)c3)c1)(C1CCC1)C(C#N)=C(N)O2 (stereo not shown) [Compound 2.643] and Cc1n[nH]c2c1C(c1cc(C#N)cc(-c3cc(C(=O)O)cc(C(=O)O)c3)c1)(C1CCC1)C(C#N)=C(N)O2 (stereo not shown) [Compound 2.564] cannot be ordered by EC50: less than 10 nM for the first, less than 1000 nM for the second.

Cc1n[nH]c2c1C(c1cc(C#N)cc(-c3ccc(F)c(C(=O)O)c3)c1)(C1CCC1)C(C#N)=C(N)O2 (stereo not shown) [Compound 2.558] and COc1cc(-c2cc(C#N)cc(C3(C4CCC4)C(C#N)=C(N)Oc4[nH]nc(C)c43)c2)ccc1C(=O)O (stereo not shown) [Compound 2.561] cannot be ordered by EC50: less than 10 nM for the first, less than 10 nM for the second.

COc1ccc(C2(C3CCC3)C(C#N)=C(N)Oc3[nH]nc(C)c32)cc1C#N (stereo not shown) [Compound 2.464] and COc1ccc(C2(C3CCC3)C(C#N)=C(N)Oc3[nH]nc(C)c32)cc1Cl (stereo not shown) [Compound 2.178.] cannot be ordered by EC50: less than 10 nM for the first, less than 10 nM for the second.

Cc1n[nH]c2c1C(c1cc(CNC(=O)CCC(=O)O)cc(C(F)(F)F)c1)(C1CCC1)C(C#N)=C(N)O2 (stereo not shown) [Compound 2.649] and Cc1n[nH]c2c1C(c1cc(Cl)cc(CC(=O)O)c1)(C1CCC1)C(C#N)=C(N)O2 (stereo not shown) [Compound 2.499] cannot be ordered by EC50: less than 10 nM for the first, less than 10 nM for the second.

Cc1n[nH]c2c1C(c1cc(C(F)(F)F)cc(C(F)(F)F)c1)(C1CC(O)C1)C(C#N)=C(N)O2 (racemic) [Compound 2.540] and CCC1(c2cc(C(F)(F)F)cc(C(F)(F)F)c2)C(C#N)=C(N)Oc2[nH]nc(C3CC3)c21 (stereo not shown) [Compound 2.121.] cannot be ordered by EC50: less than 100 nM for the first, less than 100 nM for the second.

Cc1n[nH]c2c1C(c1cccc(Cl)c1)(C(C)C)C(C#N)=C(N)O2 (stereo not shown) [Compound 2.122.] and CCC1(c2cccc(Cl)c2)C(C#N)=C(N)Oc2[nH]nc(C(F)F)c21 (stereo not shown) [Compound 2.165.] cannot be ordered by EC50: less than 100 nM for the first, less than 1000 nM for the second.

COC(=O)c1cc(-c2cc(C#N)cc(C3(C4CCC4)C(C#N)=C(N)Oc4[nH]nc(C)c43)c2)cc([N+](=O)[O-])c1 (stereo not shown) [Compound 2.554] and CCCCC(=O)N(C)c1cc(C#N)cc(C2(C3CCC3)C(C#N)=C(N)Oc3[nH]nc(C)c32)c1 (stereo not shown) [Compound 2.614] cannot be ordered by EC50: less than 10 nM for the first, less than 10 nM for the second.

CCC1(c2ccc(C)c(Br)c2)C(C#N)=C(N)Oc2[nH]nc(C)c21 (stereo not shown) [Compound 2.466] and CCC1(c2cc(C)cc(Br)c2)C(C#N)=C(N)Oc2[nH]nc(C)c21 (stereo not shown) [Compound 2.469] cannot be ordered by EC50: less than 100 nM for the first, less than 10 nM for the second.

CCCC1(c2cc(Cl)cc(Cl)c2)C(C#N)=C(N)Oc2[nH]nc(C)c21 (stereo not shown) [Compound 2.89.] and CCCC1(c2ccc(Cl)c(Cl)c2)C(C#N)=C(N)Oc2[nH]nc(C)c21 (stereo not shown) [Compound 2.90.] cannot be ordered by EC50: less than 1000 nM for the first, less than 1000 nM for the second.

Cc1n[nH]c2c1C(c1cc(Cl)cc(Cl)c1)(C1(F)CCC1)C(C#N)=C(N)O2 (stereo not shown) [Compound 2.180.] and Cc1n[nH]c2c1C(c1cc(Cl)cc(CCc3nnn[nH]3)c1)(C1CCC1)C(C#N)=C(N)O2 (stereo not shown) [Compound 2.539] cannot be ordered by EC50: less than 100 nM for the first, less than 10 nM for the second.

CCCC1(c2cc(Br)cc(C#N)c2)C(C#N)=C(N)Oc2[nH]nc(C)c21 (stereo not shown) [Compound 2.534] and CCCC1(c2cc(Br)cc(C#N)c2)C(C#N)=C(N)Oc2[nH]nc(COC)c21 (stereo not shown) [Compound 2.592] cannot be ordered by EC50: less than 10 nM for the first, less than 1000 nM for the second.

CCC1(c2ccc(Oc3ccc(C(F)(F)F)cc3Cl)c(C)c2)C(C#N)=C(N)Oc2[nH]nc(C3CC3)c21 (stereo not shown) [Compound 2.164.] and CCC1(c2ccc(OC(=O)c3ccccc3)c(C)c2)C(C#N)=C(N)Oc2[nH]nc(C)c21 (stereo not shown) [Compound 2.49.] cannot be ordered by EC50: less than 10000 nM for the first, less than 1000 nM for the second.

CCC1(c2cc(C#N)cc(C(F)(F)F)c2)C(C#N)=C(N)Oc2[nH]nc(C(F)F)c21 (stereo not shown) [Compound 2.606] and CCc1n[nH]c2c1C(CC)(c1cc(C(F)(F)F)cc(C(F)(F)F)c1)C(C#N)=C(N)O2 (stereo not shown) [Compound 2.84.] cannot be ordered by EC50: less than 10 nM for the first, less than 100 nM for the second.

Cc1n[nH]c2c1C(c1cc(Cl)cc(Oc3cccc(F)c3)c1)(C1CC1)C(C#N)=C(N)O2 (stereo not shown) [Compound 2.190.] and Cc1n[nH]c2c1C(c1cc(C#N)cc(-c3ccc(C(=O)O)cc3)c1)(C(C)C)C(C#N)=C(N)O2 (stereo not shown) [Compound 2.519] cannot be ordered by EC50: less than 100 nM for the first, less than 10 nM for the second.

CCCC1(c2cc(C#N)cc(C#N)c2)C(C#N)=C(N)Oc2[nH]nc(CC)c21 (stereo not shown) [Compound 2.579] and CCC1(c2ccc(NC(=O)OC)cc2)C(C#N)=C(N)Oc2[nH]nc(C)c21 (stereo not shown) [Compound 2.80.] cannot be ordered by EC50: less than 100 nM for the first, less than 1000 nM for the second.

Compound COc1ccc(C2(C(C)(C)F)C(C#N)=C(N)Oc3[nH]nc(C)c32)cc1Cl (stereo not shown) [Compound 2.620] has an EC50 of less than 10 nM.

Same assay, conditions: inhibition of initial velocity of Arabidopsis thaliana SHMT

COc1ccc2cc(C3(C4CCC4)C(C#N)=C(N)Oc4[nH]nc(C)c43)ccc2c1 (stereo not shown) [Compound 4.36] and COc1ccc2cc(C3(C4CCC4)C(C#N)=C(N)Oc4[nH]nc(CO)c43)ccc2c1 (stereo not shown) [Compound 4.77] cannot be ordered by EC50: less than 10 nM for the first, less than 1000 nM for the second.

CCC1(c2ccc3c(c2)C(C)(C)C(C)C3(C)C)C(C#N)=C(N)Oc2[nH]nc(C)c21 (stereo not shown) [Compound 4.71] and CCC1(c2cc(F)cc(F)c2F)C(C#N)=C(N)Oc2[nH]nc(C)c21 (stereo not shown) [Compound 3.4] cannot be ordered by EC50: less than 1000 nM for the first, less than 10000 nM for the second.

Cc1csc(C2(C3CC3)C(C#N)=C(N)Oc3[nH]nc(C)c32)c1 (racemic) [Compound 4.70] and Cc1n[nH]c2c1C(c1cc(-c3ccccc3)cs1)(C1CC1)C(C#N)=C(N)O2 (stereo not shown) [Compound 4.64] cannot be ordered by EC50: less than 1000 nM for the first, less than 1000 nM for the second.

N#CC1=C(N)Oc2[nH]nc(C(F)F)c2C1(c1ccc(Cl)s1)C1CC1 (stereo not shown) [Compound 4.83] and Cc1n[nH]c2c1C(c1cc3cc(C(F)(F)F)ccc3s1)(C1CCC1)C(C#N)=C(N)O2 (stereo not shown) [Compound 4.22] cannot be ordered by EC50: less than 10000 nM for the first, less than 10 nM for the second.

N#CC1=C(N)Oc2[nH]ncc2C1(c1cc2ccccc2o1)C1CCC1 (stereo not shown) [Compound 4.54] and Cc1n[nH]c2c1C(c1cc(-c3cccc(F)c3)cs1)(C1CCC1)C(C#N)=C(N)O2 (stereo not shown) [Compound 4.47] cannot be ordered by EC50: less than 100 nM for the first, less than 100 nM for the second.

Cc1ccc2cc(C3(C4CCC4)C(C#N)=C(N)Oc4[nH]nc(C)c43)cc(C(F)(F)F)c2n1 (stereo not shown) [Compound 4.19] and Cc1n[nH]c2c1C(c1cc(Cl)c3c(c1)CCO3)(C1CCC1)C(C#N)=C(N)O2 (stereo not shown) [Compound 4.12] cannot be ordered by EC50: less than 10 nM for the first, less than 10 nM for the second.
